Reference: ChEMBL document CHEMBL1159112, “Synthesis, biological evaluation, and molecular modeling of berberine derivatives as potent acetylcholinesterase inhibitors” (Bioorg Med Chem, 2010)

Legend:
Acetylcholinesterase [1] = biological target: T1, Acetylcholinesterase (Electrophorus electricus, UniProt O42275); experiment: Inhibition of electric eel AChE by modified Ellman method
[2] = Selectivity for electric eel AChE over horse serum BChE
Cholinesterase = Cholinesterase (Equus caballus, UniProt P81908)
Description: Inhibition of horse serum BChE by Ellman's method

Acetylcholinesterase [3] = biological target: T1, Acetylcholinesterase; experiment: Inhibition of electric eel AChE by enzyme kinetics assay

T1 sequence (O42275 whole entry): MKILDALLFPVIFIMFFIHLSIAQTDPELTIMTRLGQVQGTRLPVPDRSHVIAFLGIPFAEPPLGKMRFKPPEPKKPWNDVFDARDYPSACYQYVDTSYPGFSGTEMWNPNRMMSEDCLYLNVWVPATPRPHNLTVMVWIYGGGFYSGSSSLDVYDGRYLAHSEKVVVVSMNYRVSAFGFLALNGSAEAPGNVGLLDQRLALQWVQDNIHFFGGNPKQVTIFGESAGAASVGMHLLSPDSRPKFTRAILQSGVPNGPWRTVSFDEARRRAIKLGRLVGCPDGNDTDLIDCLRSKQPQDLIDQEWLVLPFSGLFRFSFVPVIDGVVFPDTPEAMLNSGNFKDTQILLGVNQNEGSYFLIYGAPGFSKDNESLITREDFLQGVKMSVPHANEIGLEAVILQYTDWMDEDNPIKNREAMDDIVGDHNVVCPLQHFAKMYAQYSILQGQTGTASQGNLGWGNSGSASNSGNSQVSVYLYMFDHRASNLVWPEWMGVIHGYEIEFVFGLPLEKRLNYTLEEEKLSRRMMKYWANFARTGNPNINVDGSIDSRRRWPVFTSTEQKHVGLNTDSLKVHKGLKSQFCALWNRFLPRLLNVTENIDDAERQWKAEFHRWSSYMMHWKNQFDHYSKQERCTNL
Chain of Cholinesterase (P81908 whole entry): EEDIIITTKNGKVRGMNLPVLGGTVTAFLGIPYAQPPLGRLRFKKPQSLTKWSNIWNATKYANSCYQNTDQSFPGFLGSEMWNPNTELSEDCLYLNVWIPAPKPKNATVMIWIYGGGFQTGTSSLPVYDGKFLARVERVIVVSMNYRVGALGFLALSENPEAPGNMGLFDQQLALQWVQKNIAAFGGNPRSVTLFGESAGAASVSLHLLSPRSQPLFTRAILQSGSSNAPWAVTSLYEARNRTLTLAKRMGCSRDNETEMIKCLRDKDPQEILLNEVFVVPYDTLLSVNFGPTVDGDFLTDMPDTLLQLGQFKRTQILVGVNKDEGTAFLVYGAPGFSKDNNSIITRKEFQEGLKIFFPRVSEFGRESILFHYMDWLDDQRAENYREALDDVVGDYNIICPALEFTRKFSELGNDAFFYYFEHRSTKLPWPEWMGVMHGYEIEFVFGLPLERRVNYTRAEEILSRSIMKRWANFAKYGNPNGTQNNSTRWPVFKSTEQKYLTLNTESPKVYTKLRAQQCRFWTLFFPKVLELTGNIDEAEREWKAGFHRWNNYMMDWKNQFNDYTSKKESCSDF

`COc1ccc2cc3[n+](cc2c1OCCCCCOc1ccccc1)CCc1cc2c(cc1-3)OCO2` gave an IC50 (Acetylcholinesterase [1]) of 398 nM.
With `COc1ccc2cc3[n+](cc2c1OCCCCCOn1nnc2ccccc21)CCc1cc2c(cc1-3)OCO2` the IC50 (Acetylcholinesterase [1]) was 280 nM, the Ratio IC50 [2] was 8.9 and the IC50 (Cholinesterase) was 2490 nM.
`COc1ccc2cc3[n+](cc2c1OCCCOc1ccccc1)CCc1cc2c(cc1-3)OCO2` gave an IC50 (Acetylcholinesterase [1]) of 123 nM.
With `COc1ccc2cc3[n+](cc2c1OC)CCc1cc2c(cc1-3)OCO2` [BERBERINE CHLORIDE] the IC50 (Acetylcholinesterase [1]) was 374 nM and the Ki (Acetylcholinesterase [3]) was 289 nM.
Molecule `COc1ccc2cc3[n+](cc2c1OCCCCOc1cccc2[nH]c4ccccc4c12)CCc1cc2c(cc1-3)OCO2` has an IC50 (Acetylcholinesterase [1]) of 856 nM.
In the case of `COc1ccc2cc3[n+](cc2c1OCCCCCCOc1cccc2[nH]c4ccccc4c12)CCc1cc2c(cc1-3)OCO2`, the IC50 (Acetylcholinesterase [1]) is reported as 2100 nM.
In the case of `COc1ccc2cc3[n+](cc2c1OCCOn1nnc2ccccc21)CCc1cc2c(cc1-3)OCO2`, the IC50 (Acetylcholinesterase [1]) is reported as 375 nM.
`COc1ccc2cc3[n+](cc2c1OCCCCOn1nnc2ccccc21)CCc1cc2c(cc1-3)OCO2` gave an IC50 (Acetylcholinesterase [1]) of 224 nM, a Ratio IC50 [2] of 18.6 and an IC50 (Cholinesterase) of 4170 nM.
For `COc1ccc2cc3[n+](cc2c1OCCOc1cccc2[nH]c4ccccc4c12)CCc1cc2c(cc1-3)OCO2`, the IC50 (Acetylcholinesterase [1]) was 1230 nM.
`COc1ccc2cc3[n+](cc2c1OCCCOc1cccc2[nH]c4ccccc4c12)CCc1cc2c(cc1-3)OCO2` showed an IC50 (Acetylcholinesterase [1]) of 1120 nM.
In the case of `COc1ccc2cc3[n+](cc2c1OCCCOn1nnc2ccccc21)CCc1cc2c(cc1-3)OCO2`, the IC50 (Acetylcholinesterase [1]) is reported as 359 nM, the Ratio IC50 [2] is reported as 8 and the IC50 (Cholinesterase) is reported as 2890 nM.
`COc1ccc2cc3[n+](cc2c1OCCCCCCOn1nnc2ccccc21)CCc1cc2c(cc1-3)OCO2` gave an IC50 (Acetylcholinesterase [1]) of 515 nM and a Ratio IC50 [2] of 5.5.
`COc1ccc2cc3[n+](cc2c1OCCOc1ccccc1)CCc1cc2c(cc1-3)OCO2` showed an IC50 (Acetylcholinesterase [1]) of 224 nM.
`COc1ccc2cc3[n+](cc2c1OCCCCCOc1cccc2[nH]c4ccccc4c12)CCc1cc2c(cc1-3)OCO2` showed an IC50 (Acetylcholinesterase [1]) of 1680 nM.
In the case of `COc1ccc2cc3[n+](cc2c1OCCCCCCOc1ccccc1)CCc1cc2c(cc1-3)OCO2`, the IC50 (Acetylcholinesterase [1]) is reported as 520 nM.
